Data on one compound can be found in patent US20050191308A1 (priority 1999, published 2005).

One experiment relates to ESAT-6. The conditions noted are these: in vivo.
The test system of a further experiment is blood cells. It counts as in vivo, C57BL/6 mice. The conditions noted are these: 10 μg ESAT-6/dose, three times.

Regarding `CCCCCCCCCCCCCCCCCC[N+](C)(C)CCCCCCCCCCCCCCCCCC.[Br-]` [DDA], in the experiment on ESAT-6, the “ESAT-6 specific IgG (end-point titer), Expt. I” value was under 3 and the “ESAT-6 specific IgG (end-point titer), Expt. II” value was under 3. Moreover, the “ESAT-6 specific recall response, IFN-γ, Expt. I” value in the experiment on blood cells was under 50 pg/mL.
